According to patent US20050209295A1, “Methimazole derivatives and tautomeric cyclic thiones to inhibit cell adhesion” (priority 2004, published 2005):

Experiments:
Assay type in all cases: cell-based, human
[1] = system: U937 cell adhesion to HAEC; assay: Flow adhesion assay: U937 cell adhesion to TNF-α activated HAEC; conditions: shear stress 1.8 dynes/cm^2
Method: U937 cells (American Type Culture Collection; Manassas, Va.) are cultured in RPMI supplemented with 8% FBS, 2 mM L-glutamine, 100 units/ml penicillin and 100 μg/ml streptomycin. For the adhesion assays, U937 cells are washed, resuspended to 1×10^8 cells/ml in RPMI and held on ice (<4 hrs.) until the time they are used in the flow adhesion assay.
Flow adhesion assays: A parallel plate flow chamber (Glycotech; Rockville, Md.), similar to that described by McIntire, Smith and colleagues (34) is used in this study. Our particular set up has been described previously (20). A 35-mm tissue culture dish containing a confluent HAEC monolayer is loaded into the flow chamber. After a brief rinse, U937 cells (5*10^5 cells/ml in assay buffer) are drawn over the HAEC monolayer at a shear stress of 1.8 dynes/cm^2. To determine U937 cell accumulation, the number of U937 cells adherent (either rolling or firmly adherent) to the HAEC monolayer in 8 different fields of view after 2.5 minutes of flow is determined, averaged and normalized to the area of the field of view to give the result for that particular run. Such an assay is done at least 3 times. In certain experiments, TNF-α activated HAEC, in the absence or presence of C-10, are treated with mAbs HEL3/2 or 51-10C9 (10 μg/ml) or a combination of HEL3/2 and 51-10C9. […]

[2] = system: IRF-1; assay: TNF-alpha-induced IRF-1 RNA levels (Northern blot); conditions: for % INIHIBITION of TNF-alpha-induced IRF-1 RNA levels: mean ± SD
Method: (§1) Cell culture and treatment of HAEC: Human aortic endothelial cells (HAEC; Cambrex Bio Science Walkersville, Inc., Walkersville, Md.) are cultured in M199 supplemented with 8% FBS, 100 μg/ml heparin, 10 ng/ml endothelial growth factor, 100 μg/ml hypothalamus extract, 2 mM L-glutamine, 1% non-essential amino acids, 100 units/ml penicillin and 100 μg/ml streptomycin. HAEC are subcultured on gelatin pre-coated: 96-well tissue culture plates (Corning Incorporated; Corning, N.Y.) for viability assays and ELISA; 100-mm tissue culture dishes (BD Falcon; Franklin Lakes, N.J.) for Northern blot analyses, Western blot analyses and EMSA; 35-mm tissue culture dishes (Corning) for adhesion assays and on 24-well tissue culture plates for luciferase promoter assays (BD Falcon). All experiments are performed with confluent HAEC monolayers. Unless noted otherwise, HAEC are treated with 25 ng/ml TNF-α, in the absence or presence of C-10 or 0.25% DMSO (carrier control for C-10), for 2-24 hrs. The concentration of DMSO is held constant at 0.25% (unless indicated otherwise) for all of the C-10 conditions.
HAEC are washed with PBS and total RNA extracted using a commercial kit (RNeasy Mini Kit; Qiagen Inc.; Valencia, Calif.). 12 μg of total RNA per lane is resolved on 1% denaturing agarose gels containing 0.66M formaldehyde. Gels are capillary blotted on Nytran membranes (Schleicher and Schuell Inc.; Keene, N.H.), UV cross-linked, and used for hybridization. The probe for IRF-1 has been previously described (33). The G3PDH cDNA is from Clontech (Palo Alto, Calif.). […]; cDNAs are labeled with α-^32P-dCTP using the Ladderman Labeling Kit (Takara Biochemical Inc.; Berkeley, Calif.) (33). Northern blots are developed using a BAS 1500 Bioimaging Analyzer (Fuji Photo Film Co., Ltd. Medical Systems USA Inc.; Stanford, Calif.). Each experiment is replicated at least twice.

[3] = system: VCAM-1; assay: ELISA of TNF-α induced VCAM-1 protein on HAEC
Method: as §1
HAEC are washed with cold HBSS+, fixed in 1% formaldehyde at 4° C. for 20 min., washed with cold HBSS+, and incubated in cold M199 containing 8% FBS. Unless otherwise noted, from this point on all antibody dilutions and washes are carried out with M199 containing 8% FBS. Murine mAbs (primary mAbs) to ECAMs are added (10 μg/ml) and the HAEC incubated at 4° C. for 20 min. Following the incubation, the wells are washed and a peroxidase conjugated polyclonal (secondary) antibody to mouse IgG is added (diluted 1:50). After a 20 min. incubation at 4° C., the wells are washed and treated with OPD dissolved in phosphate citrate buffer containing sodium perborate. Following a 10 min. incubation at room temperature, the absorbance of the fluid in each well is determined at 450 nm using a micro-well plate spectrophotometer (Molecular Devices; Sunnyvale, Calif.). In every experiment, each condition is run in triplicate wells.

With `Cn1c(-c2ccccc2)cnc1S` [5-Phenylmethimazole] the “effect on TNF-α induced U937 cell adhesion to HAEC” value ([1]; 4 hr. TNF-α, C-10 0.5 mM, mAbs 10 μg/ml) was “little effect”, the “effect on TNF-α induced U937 cell adhesion to HAEC” value ([1]; 24 hr. TNF-α, C-10 0.1 mM alone vs. DMSO) was “significantly reduced” and the “effect on TNF-α induced IRF-1 mRNA expression in HAEC” value ([2]; 0.5 mM or 1 mM, 2 hr. TNF-α) was “reduces”. For the same compound, the “% INIHIBITION of TNF-alpha-induced IRF-1 RNA levels” value (“% INIHIBITION” for short) ([2]; 5 mM) was 95 ± 15%, the “% INIHIBITION” value ([2]; 10 :M) was 65 ± 16% and the “% INIHIBITION” value ([2]; 100 :M) was 90 ± 17%. For the same compound, the “concentration at which significant reduction of TNF-α induced VCAM-1 protein expression is observed” value ([3]; 4 hr. TNF-α) was at least 0.25 mM, the “effect on TNF-α induced protein expression of VCAM-1” value ([3]; 4 hr. TNF-α) was “significantly reduces” and the “concentration at which significant reduction of TNF-α induced VCAM-1 protein expression is observed” value ([3]; 24 hr. TNF-α) was at least 0.05 mM. The “effect on TNF-α induced protein expression of VCAM-1” value ([3]; 24 hr. TNF-α) was “significantly reduces”.
